According to paper PMC8026479 (Cancer Chemotherapy and Pharmacology, 2021):

System: chemotherapy-induced myelosuppression in ES-SCLC patients
Experiment: Study G1T28-03 Part 1 DLTs and myelosuppression endpoints (with topotecan)
Assay type: in vivo, human
Source text: G1T28-03 (NCT02514447) was a multicentre Phase Ib/IIa study in patients with previously treated ES-SCLC [14]. Patients were aged ≥ 18 years and had histologically or cytologically confirmed ES-SCLC that had progressed during or after prior first- or second-line chemotherapy, measurable disease per RECIST version 1.1, an ECOG performance status of 0–2, and adequate organ function. Part 1 was a Phase Ib, open-label, dose-finding portion. Part 2 was a Phase IIa, randomized, double-blind, placebo-controlled portion. […] In Part 1 of the study, blood samples for PK analysis were collected at prespecified time points on Cycle 1 Day 1 and Cycle 1 Day 4 for all patients.

[1] = G1T28-03 Part 1, 200 mg/m2 + topotecan […]2 (n = 2)
[2] = G1T28-03 Part 1, 240 mg/m2 + topotecan 0.75 mg/m2 (n = 8)
[3] = G1T28-03 Part 1, 240 mg/m2 + topotecan 1.00 mg/m2 (n = 8)
[4] = G1T28-03 Part 1, 280 mg/m2 + topotecan 0.75 mg/m2 (n = 7)
[5] = G1T28-03 Part 1, total (n = 32)

CN1CCN(c2ccc(Nc3ncc4cc5n(c4n3)C3(CCCCC3)CNC5=O)nc2)CC1 [trilaciclib]
Occurrence of G-CSF administration [1]: 2 (100) n (%) | Occurrence of Grade 3 or 4 decreased hemoglobin laboratory values [1]: 2 (100) n (%) | Occurrence of Grade 3 or 4 decreased platelet count values [1]: 2 (100) n (%) | Occurrence of Grade 3 or 4 hematologic laboratory abnormalities [1]: 2 (100.0) n (%) | Occurrence of IV antibiotic use [1]: 2 (100) n (%) | Occurrence of RBC transfusions on/after Week 5 [1]: 2 (100) n (%) | Occurrence of SN [1]: 2 (100) n (%) | Occurrence of infection SAEs [1]: 2 (100) n (%) | Occurrence of platelet transfusions [1]: 0 n (%) | Occurrence of pulmonary infection SAEs [1]: 1 (50.0) n (%) | DSN in Cycle 1, mean (SD) [2]: 0 (0.0) days | MAHE, event rate [2]: 0.037 per week | Mean ANC Nadir in Cycle 1 [2]: 1.31 (0.650) ×109/L | Occurrence of ESA administrations [2]: 1 (12.5) n (%) | Occurrence of FN [2]: 0 n (%) | Occurrence of G-CSF administration [2]: 4 (50.0) n (%) | Occurrence of Grade 3 or 4 decreased hemoglobin laboratory values [2]: 3 (37.5) n (%) | Occurrence of Grade 3 or 4 decreased platelet count values [2]: 0 n (%) | Occurrence of Grade 3 or 4 hematologic laboratory abnormalities [2]: 7 (87.5) n (%) | Occurrence of IV antibiotic use [2]: 1 (12.5) n (%) | Occurrence of RBC transfusions on/after Week 5 [2]: 1 (12.5) n (%) | Occurrence of SN [2]: 0 n (%) | Occurrence of infection SAEs [2]: 0 n (%) | Occurrence of platelet transfusions [2]: 0 n (%) | Occurrence of pulmonary infection SAEs [2]: 0 n (%) | DSN in Cycle 1, mean (SD) [3]: 3 (5.5) days | MAHE, event rate [3]: 0.073 per week | Mean ANC Nadir in Cycle 1 [3]: 0.63 (0.341) ×109/L | Occurrence of ESA administrations [3]: 1 (12.5) n (%) | Occurrence of FN [3]: 0 n (%) | Occurrence of G-CSF administration [3]: 3 (37.5) n (%) | Occurrence of Grade 3 or 4 decreased hemoglobin laboratory values [3]: 3 (37.5) n (%) | Occurrence of Grade 3 or 4 decreased platelet count values [3]: 1 (12.5) n (%) | Occurrence of Grade 3 or 4 hematologic laboratory abnormalities [3]: 7 (87.5) n (%) | Occurrence of IV antibiotic use [3]: 1 (12.5) n (%) | Occurrence of RBC transfusions on/after Week 5 [3]: 2 (25.0) n (%) | Occurrence of SN [3]: 3 (37.5) n (%) | Occurrence of infection SAEs [3]: 1 (12.5) n (%) | Occurrence of platelet transfusions [3]: 0 n (%) | Occurrence of pulmonary infection SAEs [3]: 1 (12.5) n (%) | patients reporting DLTs (G1T28-03 Part 1, 280 mg/m2 + topotecan 0.75 mg/m2): 2 of 7 | DSN in Cycle 1, mean (SD) [4]: 2 (3.6) days | MAHE, event rate [4]: 0.085 per week | Mean ANC Nadir in Cycle 1 [4]: 0.86 (0.594) ×109/L | Occurrence of ESA administrations [4]: 0 n (%) | Occurrence of FN [4]: 1 (14.3) n (%) | Occurrence of G-CSF administration [4]: 2 (28.6) n (%) | Occurrence of Grade 3 or 4 decreased hemoglobin laboratory values [4]: 1 (14.3) n (%) | Occurrence of Grade 3 or 4 decreased platelet count values [4]: 2 (28.6) n (%) | Occurrence of Grade 3 or 4 hematologic laboratory abnormalities [4]: 7 (100.0) n (%) | Occurrence of IV antibiotic use [4]: 2 (28.6) n (%) | Occurrence of RBC transfusions on/after Week 5 [4]: 1 (14.3) n (%) | Occurrence of SN [4]: 2 (28.6) n (%) | Occurrence of infection SAEs [4]: 0 n (%) | Occurrence of platelet transfusions [4]: 1 (14.3) n (%) | Occurrence of pulmonary infection SAEs [4]: 0 n (%) | DSN in Cycle 1, mean (SD) [5]: 3 (5.1) days | MAHE, event rate [5]: 0.107 per week | Occurrence of ESA administrations [5]: 5 (15.6) n (%) | Occurrence of FN [5]: 1 (3.1) n (%) | Occurrence of G-CSF administration [5]: 14 (43.8) n (%) | Occurrence of Grade 3 or 4 decreased hemoglobin laboratory values [5]: 12 (37.5) n (%) | Occurrence of Grade 3 or 4 decreased platelet count values [5]: 8 (25.0) n (%) | Occurrence of Grade 3 or 4 hematologic laboratory abnormalities [5]: 30 (93.8) n (%) | Occurrence of IV antibiotic use [5]: 8 (25.0) n (%) | Occurrence of RBC transfusions on/after Week 5 [5]: 9 (28.1) n (%) | Occurrence of SN [5]: 10 (31.3) n (%) | Occurrence of infection SAEs [5]: 5 (15.6) n (%) | Occurrence of platelet transfusions [5]: 2 (6.3) n (%) | Occurrence of pulmonary infection SAEs [5]: 4 (12.5) n (%)
